Legend:
[1] = system: P. falciparum 3D7 parasites; experiment: P. falciparum growth inhibition assay, 2-cycle (120 h treatment), delayed-death screen and dose-response; type: cell-based, Plasmodium falciparum; settings: for Pf_120h_%Growth_Rep1: replicate 1; for Pf_120h_%Growth_Rep2: replicate 2
[2] = system: T. gondii RH strain (RH-Tub-eYFP) tachyzoites; experiment: microbe, parasite or virus in culture; type: cell-based, Toxoplasma gondii; settings: 72 h; for Tg_72h_%Growth_Rep1: replicate 1; for Tg_72h_%Growth_Rep2: replicate 2
[3] = system: P. falciparum 3D7 parasites; experiment: P. falciparum growth inhibition assay, 1-cycle (72 h treatment), SYBR DNA staining (library screen at 2 μg/mL and dose-response); type: cell-based, Plasmodium falciparum; settings: for Pf_72h_%Growth_Rep1: replicate 1; for Pf_72h_%Growth_Rep2: replicate 2
[4] = P. falciparum, 120 h, screen at 2 μg/mL
[5] = P. falciparum, 72 h, screen at 2 μg/mL
[6] = library screen at 2 μg/mL, 120 h, % growth
[7] = library screen at 2 μg/mL, % growth
[8] = library screen at 2 μg/mL, 72 h, % growth
[9] = P. falciparum, 120 h, parasite screen 2 μg/mL, % growth
[10] = T. gondii, 2 μg/mL, values are growth (% of control)
[11] = T. gondii, parasite screen 2 μg/mL, % growth
[12] = P. falciparum, 72 h, parasite screen 2 μg/mL, % growth
[13] = P. falciparum 3D7, 120 h, library screen at 2 μg/mL, % growth
[14] = T. gondii RH, library screen at 2 μg/mL, % growth
[15] = P. falciparum 3D7, 72 h, library screen at 2 μg/mL, % growth

`O=C1N[C@@H](Cc2c[nH]c3ccccc23)C(=O)N[C@H]1Cc1c[nH]c2ccccc12` [Cyclo(L-Trp-L-Trp)] was tested, and the Pf_120h_%Growth_Rep1 [1, 4] was 96.17%, the Pf_120h_%Growth_Rep2 [1, 4] was 91.69% and the Tg_72h_%Growth_Rep1 ([2]; T. gondii, screen at 2 μg/mL) was 161.12%. For the same molecule, the Tg_72h_%Growth_Rep2 ([2]; T. gondii, screen at 2 μg/mL) was 99.00%, the Pf_72h_%Growth_Rep1 [3, 5] was 85.34% and the Pf_72h_%Growth_Rep2 [3, 5] was 84.68%.
In the case of `CC[C@H](C)[C@H]1O[C@]2(C=C[C@@H]1C)C[C@@H]1C[C@@H](C/C=C(\C)[C@@H](O[C@H]3C[C@H](OC)[C@@H](O[C@H]4C[C@H](OC)[C@@H](O)[C@H](C)O4)[C@H](C)O3)[C@@H](C)/C=C/C=C3\CO[C@@H]4[C@H](O)C(C)=C[C@H](C(=O)O1)[C@]34O)O2` [Avermectin B1a, epi-], the Pf_120h_%Growth_Rep1 [1, 6] is reported as 5.66%, the Pf_120h_%Growth_Rep2 [1, 6] is reported as -2.43% and the Tg_72h_%Growth_Rep1 [2, 7] is reported as 34.09%. For the same molecule, the Tg_72h_%Growth_Rep2 [2, 7] was 40.50%, the Pf_72h_%Growth_Rep1 [3, 8] was 8.49% and the Pf_72h_%Growth_Rep2 [3, 8] was 20.73%.
`CO[C@H]1C[C@H](O[C@H]2[C@H](C)O[C@@H](O[C@@H]3/C(C)=C/C[C@@H]4C[C@@H](C[C@]5(C=C[C@H](C)[C@@H](C6CCCCC6)O5)O4)OC(=O)[C@H]4C=C(C)[C@@H](O)[C@H]5OC/C(=C\C=C\[C@@H]3C)[C@@]45O)C[C@@H]2OC)O[C@@H](C)[C@@H]1O` [Doramectin, epi-] was tested, and the Pf_120h_%Growth_Rep1 [1, 6] was -3.39%, the Pf_120h_%Growth_Rep2 [1, 6] was 23.35% and the Tg_72h_%Growth_Rep1 [2, 7] was 72.64%. The Tg_72h_%Growth_Rep2 [2, 7] was 83.42%, the Pf_72h_%Growth_Rep1 [3, 8] was 8.06% and the Pf_72h_%Growth_Rep2 [3, 8] was 18.63%.
With `CN1CCC2(c3cccc4c3NC3N(C)CCC43c3cccc4c3NC3N(C)CCC43C34CCN(C)C3Nc3c(C56CCN(C)C5Nc5ccccc56)cccc34)c3ccccc3NC12` (stereo not drawn) [Psychotridine] the Pf_120h_%Growth_Rep1 [1, 9] was 15.63%, the Pf_120h_%Growth_Rep2 [1, 9] was 4.30% and the Mean ([2]; T. gondii, 2 μg/mL, mean of both replicates, growth (% of control)) was 39.57. For the same molecule, the “Replicate 1” value [2, 10] was 17.15, the “Replicate 2” value [2, 10] was 61.99 and the Tg_72h_%Growth_Rep1 [2, 11] was 17.15%. It also gave a Tg_72h_%Growth_Rep2 [2, 11] of 61.99%, a Pf_72h_%Growth_Rep1 [3, 12] of 4.01% and a Pf_72h_%Growth_Rep2 [3, 12] of -3.25%.
In the case of `C=C1c2c(Cl)ccc(O)c2C(=O)C2=C(O)[C@]3(O)C(=O)C(C(N)=O)=C(O)[C@@H](N(C)C)[C@@H]3[C@@H](O)[C@H]12` [BIA-M1464], the Pf_120h_%Growth_Rep1 [1, 13] is reported as 99.01%, the Pf_120h_%Growth_Rep2 [1, 13] is reported as 114.33% and the Tg_72h_%Growth_Rep1 [2, 14] is reported as 124.80%. It also gave a Tg_72h_%Growth_Rep2 [2, 14] of 96.61%, a Pf_72h_%Growth_Rep1 [3, 15] of 76.80% and a Pf_72h_%Growth_Rep2 [3, 15] of 116.17%.
In the case of `CC(=O)NCCc1c[nH]c2ccccc12` [Acetyltryptamine, N-], the Pf_120h_%Growth_Rep1 [1, 6] is reported as 84.03%, the Pf_120h_%Growth_Rep2 [1, 6] is reported as 87.17% and the Tg_72h_%Growth_Rep1 [2, 7] is reported as 109.38%. For the same molecule, the Tg_72h_%Growth_Rep2 [2, 7] was 85.68%, the Pf_72h_%Growth_Rep1 [3, 8] was 83.66% and the Pf_72h_%Growth_Rep2 [3, 8] was 90.45%.
Work on `CCCCCCCCCCCC[C@@H](C(=O)O)[C@H](C)C(=O)O` [Roccellic acid] yielded a Pf_120h_%Growth_Rep1 [1, 9] of 69.96%, a Pf_120h_%Growth_Rep2 [1, 9] of 129.33% and a Tg_72h_%Growth_Rep1 [2, 11] of 114.12%. For the same molecule, the Tg_72h_%Growth_Rep2 [2, 11] was 89.45%, the Pf_72h_%Growth_Rep1 [3, 12] was 81.49% and the Pf_72h_%Growth_Rep2 [3, 12] was 118.80%.
With `C=C1[C@@H](C)[C@H]2[C@H](Cc3ccccc3)NC(=O)[C@]23[C@H](OC(C)=O)[C@@H]2O[C@H]2[C@@](C)(O)C(=O)[C@@H](C)C/C=C\[C@H]3[C@@H]1O` [Epoxycytochalasin D, 19,20-] the Pf_120h_%Growth_Rep1 [1, 6] was 6.52%, the Pf_120h_%Growth_Rep2 [1, 6] was -0.52% and the Tg_72h_%Growth_Rep1 [2, 7] was 2.15%. The Tg_72h_%Growth_Rep2 [2, 7] was 1.47%, the Pf_72h_%Growth_Rep1 [3, 8] was 5.59% and the Pf_72h_%Growth_Rep2 [3, 8] was 1.64%.

— publication PMC12396409, “Screening and hit evaluation of a microbial metabolite library against the pathogenic Plasmodium falciparum and Toxoplasma gondii parasites” (International Journal for Parasitology: Drugs and Drug …, 2025)
